Source: the supplement of paper PMC4862054

The compounds below were run on MCF-10A (assay: normalised response (% of control), CellTox Green; higher = less cell death (100 = DMSO, 0 = benzethonium chloride kill control)). Details: incubation time: 72 h.
Summary of the method: (§1)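 Each entry is the normalised signal at a single concentration within a series. The series comprised 5 concentrations in 10-fold steps over a compound-specific 10,000-fold range, placed in 384-well plates into which breast cancer cell lines were seeded as 20 µl suspension and incubated 72 h. CellTox Green (485/520 nm) fluorescence and then CellTiter-Glo luminescence were read, with signals normalised per plate to 0.1 % DMSO (100) and a positive kill control (0).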

Point of comparison: `C[C@H]1C[C@@H]2[C@H]([C@@H](O)C[C@@]3(C)[C@H]2CC[C@]3(O)C(=O)CO)[C@@]2(C)C=CC(=O)C=C12` [Methylprednisolone] (100 nM), normalised response 101%. Against it:
- COc1cc2c(NC3CCN(C(C)C)CC3)nc(C3CCCCC3)nc2cc1OCCCN1CCCC1 [UNC0638] (100 nM) — lower, 98.3%
- COc1cc([C@@H]2c3cc4c(cc3[C@@H](O[C@@H]3O[C@@H]5CO[C@@H](c6cccs6)O[C@H]5[C@H](O)[C@H]3O)[C@H]3COC(=O)[C@H]23)OCO4)cc(OC)c1O [Teniposide] (100 nM) — lower, 83.6%
- CC[C@H](C)C(=O)O[C@H]1C[C@H](O)C=C2C=C[C@H](C)[C@H](CC[C@@H](O)C[C@@H](O)CC(=O)O)[C@H]21 [Pravastatin] (100 nM) — lower, 99%

Each compound was assayed on HCC1599 in the same assay as above. Details: incubation time: 72 h.
Summary of the method: as §1

Point of comparison: `COc1cc2nccc(Oc3ccc(NC(=O)Nc4cc(C)on4)c(Cl)c3)c2cc1OC` [Tivozanib] (100 nM), normalised response 104%. Against it:
- CCc1cncnc1N1CCN(Cc2nc3ccc(C(F)(F)F)cc3[nH]2)CC1 (100 nM) — lower, 99.1%
- O=C(O)C(=O)O.[NH-][C@@H]1CCCC[C@H]1[NH-].[Pt+2] [Oxaliplatin] (100 nM) — lower, 94.2%
- CC1=C(/C=C/C(C)=C/C=C/C(C)=C/C(=O)O)C(C)(C)CCC1 [Tretinoin] (100 nM) — lower, 99.1%
- Oc1ncc(N(CCCl)CCCl)c(O)n1 [Uracil mustard] (100 nM) — lower, 102%
- COc1cc2c(NC3CCN(C(C)C)CC3)nc(C3CCCCC3)nc2cc1OCCCN1CCCC1 [UNC0638] (100 nM) — lower, 101%
- COc1cc([C@@H]2c3cc4c(cc3[C@@H](O[C@@H]3O[C@@H]5CO[C@@H](c6cccs6)O[C@H]5[C@H](O)[C@H]3O)[C@H]3COC(=O)[C@H]23)OCO4)cc(OC)c1O [Teniposide] (100 nM) — lower, 91.3%
- CC[C@H](C)C(=O)O[C@H]1C[C@H](O)C=C2C=C[C@H](C)[C@H](CC[C@@H](O)C[C@@H](O)CC(=O)O)[C@H]21 [Pravastatin] (100 nM) — lower, 96.2%
- C[C@H]1C[C@@H]2[C@H]([C@@H](O)C[C@@]3(C)[C@H]2CC[C@]3(O)C(=O)CO)[C@@]2(C)C=CC(=O)C=C12 [Methylprednisolone] (100 nM) — higher, 110%

The compounds below were run on DU-4475 in the same assay as above. Details: incubation time: 72 h.
Summary of the method: as §1

Point of comparison: `O=C(O)C(=O)O.[NH-][C@@H]1CCCC[C@H]1[NH-].[Pt+2]` [Oxaliplatin] (100 nM), normalised response 96.8%. Against it:
- CCc1cncnc1N1CCN(Cc2nc3ccc(C(F)(F)F)cc3[nH]2)CC1 (100 nM) — higher, 101%
- COc1cc2nccc(Oc3ccc(NC(=O)Nc4cc(C)on4)c(Cl)c3)c2cc1OC [Tivozanib] (100 nM) — higher, 96.9%
- CC1=C(/C=C/C(C)=C/C=C/C(C)=C/C(=O)O)C(C)(C)CCC1 [Tretinoin] (100 nM) — higher, 108%
- Oc1ncc(N(CCCl)CCCl)c(O)n1 [Uracil mustard] (100 nM) — higher, 108%
- COc1cc2c(NC3CCN(C(C)C)CC3)nc(C3CCCCC3)nc2cc1OCCCN1CCCC1 [UNC0638] (100 nM) — higher, 97.4%
- COc1cc([C@@H]2c3cc4c(cc3[C@@H](O[C@@H]3O[C@@H]5CO[C@@H](c6cccs6)O[C@H]5[C@H](O)[C@H]3O)[C@H]3COC(=O)[C@H]23)OCO4)cc(OC)c1O [Teniposide] (100 nM) — lower, 93.6%
- CC[C@H](C)C(=O)O[C@H]1C[C@H](O)C=C2C=C[C@H](C)[C@H](CC[C@@H](O)C[C@@H](O)CC(=O)O)[C@H]21 [Pravastatin] (100 nM) — higher, 101%
- C[C@H]1C[C@@H]2[C@H]([C@@H](O)C[C@@]3(C)[C@H]2CC[C@]3(O)C(=O)CO)[C@@]2(C)C=CC(=O)C=C12 [Methylprednisolone] (100 nM) — higher, 102%

Each compound was assayed on HCC1143 in the same assay as above. Details: incubation time: 72 h.
Summary of the method: as §1

Point of comparison: `CC1=C(/C=C/C(C)=C/C=C/C(C)=C/C(=O)O)C(C)(C)CCC1` [Tretinoin] (100 nM), normalised response 96.3%. Against it:
- CCc1cncnc1N1CCN(Cc2nc3ccc(C(F)(F)F)cc3[nH]2)CC1 (100 nM) — higher, 118%
- COc1cc2nccc(Oc3ccc(NC(=O)Nc4cc(C)on4)c(Cl)c3)c2cc1OC [Tivozanib] (100 nM) — lower, 89%
- O=C(O)C(=O)O.[NH-][C@@H]1CCCC[C@H]1[NH-].[Pt+2] [Oxaliplatin] (100 nM) — lower, 89.3%
- Oc1ncc(N(CCCl)CCCl)c(O)n1 [Uracil mustard] (100 nM) — higher, 113%
- COc1cc2c(NC3CCN(C(C)C)CC3)nc(C3CCCCC3)nc2cc1OCCCN1CCCC1 [UNC0638] (100 nM) — higher, 107%
- COc1cc([C@@H]2c3cc4c(cc3[C@@H](O[C@@H]3O[C@@H]5CO[C@@H](c6cccs6)O[C@H]5[C@H](O)[C@H]3O)[C@H]3COC(=O)[C@H]23)OCO4)cc(OC)c1O [Teniposide] (100 nM) — higher, 111%
- CC[C@H](C)C(=O)O[C@H]1C[C@H](O)C=C2C=C[C@H](C)[C@H](CC[C@@H](O)C[C@@H](O)CC(=O)O)[C@H]21 [Pravastatin] (100 nM) — lower, 79.9%
- C[C@H]1C[C@@H]2[C@H]([C@@H](O)C[C@@]3(C)[C@H]2CC[C@]3(O)C(=O)CO)[C@@]2(C)C=CC(=O)C=C12 [Methylprednisolone] (100 nM) — lower, 90.4%

What follows are compounds tested on CAL-120 in the same assay as above. Details: incubation time: 72 h.
Summary of the method: as §1

Point of comparison: `CCc1cncnc1N1CCN(Cc2nc3ccc(C(F)(F)F)cc3[nH]2)CC1` (100 nM), normalised response 96%. Against it:
- COc1cc2nccc(Oc3ccc(NC(=O)Nc4cc(C)on4)c(Cl)c3)c2cc1OC [Tivozanib] (100 nM) — higher, 96.9%
- O=C(O)C(=O)O.[NH-][C@@H]1CCCC[C@H]1[NH-].[Pt+2] [Oxaliplatin] (100 nM) — higher, 100%
- CC1=C(/C=C/C(C)=C/C=C/C(C)=C/C(=O)O)C(C)(C)CCC1 [Tretinoin] (100 nM) — higher, 101%
- Oc1ncc(N(CCCl)CCCl)c(O)n1 [Uracil mustard] (100 nM) — higher, 106%
- COc1cc2c(NC3CCN(C(C)C)CC3)nc(C3CCCCC3)nc2cc1OCCCN1CCCC1 [UNC0638] (100 nM) — higher, 100%
- COc1cc([C@@H]2c3cc4c(cc3[C@@H](O[C@@H]3O[C@@H]5CO[C@@H](c6cccs6)O[C@H]5[C@H](O)[C@H]3O)[C@H]3COC(=O)[C@H]23)OCO4)cc(OC)c1O [Teniposide] (100 nM) — the same, 96%
- CC[C@H](C)C(=O)O[C@H]1C[C@H](O)C=C2C=C[C@H](C)[C@H](CC[C@@H](O)C[C@@H](O)CC(=O)O)[C@H]21 [Pravastatin] (100 nM) — higher, 97.2%
- C[C@H]1C[C@@H]2[C@H]([C@@H](O)C[C@@]3(C)[C@H]2CC[C@]3(O)C(=O)CO)[C@@]2(C)C=CC(=O)C=C12 [Methylprednisolone] (100 nM) — higher, 103%
